From patent US10052323B2, “Pharmaceutical compositions of 7-(6-(2-hydroxypropan-2-yl)pyridin-3-yl)-1-(trans)-4-methoxycyclohexyl)-3,4-dihydropyrazino [2,3-b]pyrazin-2(1H)-one, a solid form thereof and methods of their use” (Signal Pharmaceuticals, LLC, priority 2013, dated 2018)
Like-named read-outs stand apart in the source and are kept apart here. Blank lines part the entries; values can stand above or below the compound they belong to.

What was measured:
[1] = Susceptibility of Compound A to hydrolysis; type: physicochemical
[2] = Phase 1 crossover pharmacokinetics after a single oral 20 mg dose of tablet and capsule formulations; type: in vivo, human
Experimental: Certain formulations provided herein were evaluated in a Phase 1, open-label, randomized, crossover study.
On Day 1 of Period 1, following an overnight fast of at least 8 hours, subjects were randomized to one of the following 3 sequences to receive Treatment A, B or C (Table 35).
In Treatment A, one 20-mg reference Compound A API-in-capsule was administered orally after at least 8 hour fast with 240 mL of non-carbonated, room temperature water. In Treatment B, one 20-mg tablet of Compound A (Tablet Formulation XIII) was administered under fasted conditions. In Treatment C, four 5-mg tablets of Compound A (Tablet Formulation XIV) were administered under fasted conditions. The 20-mg tablet and four 5-mg tablets were administered orally after at least 8 hour fast with 240 mL of non-carbonated, room temperature water.
For each period, serial blood samples were collected before dosing (zero hour) and at 0.5, 1, 1.5, 2, 2.5, 3, 4, 6, 8, 12, 24, 48, 72, and 96 hours after dosing. Plasma concentrations of Compound A were determined for determining PK parameters, such as AUC0-t, AUC0-∞, Cmax, Tmax, t1/2, CL/F, and Vz/F for Compound A. Plasma PK parameters were calculated using non compartmental methods. Analyses of variance (ANOVA) were performed on the natural log-transformed AUC0-t, AUC0-∞, and Cmax for Compound A. The geometric mean ratios (test/reference) and their 90% confidence intervals were also calculated. For Tmax, non parametric analysis was used to produce median differences.

[3] = Phase 1 food effect study (Part 2), single 20-mg oral dose of Compound A tablet, fed vs fasted; type: in vivo, human
Experimental: The primary objectives of this study are: to characterize the biotransformation and excretion of Compound A following a single 20 mg oral dose of Compound A capsule containing a microtracer of [^14C]-Compound A solution in healthy male subjects (Part 1) and to evaluate the effect of a high-fat meal on the pharmacokinetics (PK) of Compound A following a single oral 20-mg dose of Compound A tablet (Part 2).
Part 2 design: Part 2 will be a 2-period crossover study; in Period 1, subjects (n=12) will be randomized to receive either an oral 20 mg dose of Compound A tablet (Treatment B) under fed (n=6) or fasted (n=6) conditions. In Period 2, subjects will receive Treatment B under converse conditions based on treatment assignment in Period 1. After screening, subjects (n=12) eligible for participation in the study will return to the study center on Day −1 for baseline assessments. Subjects who continue to be qualified for participation in the study will be randomized and enrolled in the study on the morning of Day 1. Subjects (n=6) will be enrolled and randomized to receive Treatment B under fed or fasted conditions on the morning of Day 1 after fasting for at least 8 hours. Fed subjects will be served a standard high fat meal breakfast, or its equivalent, that must be consumed within 30 minutes from serving. Dosing must occur 30 minutes (±5 minutes) after serving a subject breakfast. All subjects (fed and fasted) will fast (not to consume any food) until 4 hours post dose. Water will be allowed during the fasting period. Subjects will be domiciled at the study center from Day −1 until the morning of Day 5 of each period. Subjects will be discharged from the study center on the morning of Day 5 upon satisfactory safety review and completion of study-related procedures. Safety and tolerability data will be monitored and collected following each dosing period. Periods 1 and 2 will be separated by a washout period of at least 7 days (no more than 10 days) from prior dose to the next dose. In certain instances, a longer washout may be acceptable if previously agreed to.
Serial blood samples (10 mL) will be collected at predose (0 hour) and at 0.5, 1, 2, 3, 6, 12, 24, 48, 72 and 96 hours post dose for the determination of plasma concentrations of Compound A and the O-desmethyl metabolite of Compound A. Safety will be monitored throughout the study; safety evaluations will include AE reporting, physical examinations, vital sign measurements, ECG, and clinical laboratory safety tests. Concomitant medications will be assessed and recorded throughout the study as well. In addition, during the subjects' stay-in-the clinic (i.e., confinement period), fasting plasma glucose levels will be monitored as part of the clinical laboratory safety tests. For Parts 1 and 2, all subjects will return to the clinic within 7 to 10 days after the last dose for follow up safety assessments. In the event that a subject discontinues prematurely from the study, every reasonable effort should be made (and documented) to ensure that all procedures and evaluations scheduled for the follow-up visit are performed at the time of discontinuation or a follow-up visit should be scheduled within 7 to 10 days from the discontinuation day.
Part 2 dosing: In Part 2, subjects will fast overnight for at least 8 hours prior to Compound A administration. On the morning of Day 1, each subject will receive a 20-mg tablet of Compound A orally. Subjects randomized to receive Compound A under fed conditions will be a served a standard high fat meal (breakfast).
The standard high fat meal or its equivalent must be consumed within 30 minutes of serving. Dosing must occur 30 minutes (±5 minutes) after serving the meal. The tablet will be administered with approximately 240 mL of non-carbonated, room temperature water. After dosing, subjects will continue to fast until 4 hours after dosing.

[4] = Pharmacokinetics of metabolite after 7.5-60 mg Compound A (protocol of U.S. provisional 61/653,436); type: in vivo, human; conditions: for concentration at 15 day: human, in vivo, read-out: Ctrough
Experimental: In certain embodiments, the pharmacokinetic parameters in connection with the metabolite of Compound A produced via administration of 7.5 mg, 15 mg, 30 mg, 45 mg and 60 mg of Compound A are obtained using the protocol set forth in Section 5.2.1 (paragraphs [00497]-[00520]) of U.S. provisional application No. 61/653,436, filed May 31, 2012, which is incorporated by reference herein in its entirety.
In certain embodiments, the pharmacokinetic parameters set forth herein are mean values obtained from multiple subjects.

[5] = Hygroscopicity by moisture adsorption/desorption (DVS); type: physicochemical
Experimental: Sorption isotherms were obtained using a SMS DVS Intrinsic moisture sorption analyser, controlled by DVS Intrinsic Control software v1.0.0.30. The sample temperature was maintained at 25° C. by the instrument controls. The humidity was controlled by mixing streams of dry and wet nitrogen, with a total flow rate of 200 mL/min. The relative humidity was measured by a calibrated Rotronic probe (dynamic range of 1.0-100% RH), located near the sample. The weight change, (mass relaxation) of the sample as a function of % RH was constantly monitored by the microbalance (accuracy±0.005 mg). Typically 5-20 mg of sample was placed in a tared mesh stainless steel basket under ambient conditions. The sample was loaded and unloaded at 40% RH and 25° C. (typical room conditions). The standard isotherm was performed at 25° C. at 10% RH intervals over a 0-90% RH range. Data analysis was undertaken in Microsoft Excel using DVS Analysis Suite v6.0.0.7.
Hygroscopicity of Form A was determined by moisture adsorption and desorption.

[6] = fed vs fasted, 20 mg Compound A tablet, healthy adult males
[7] = plasma, single 20-mg oral dose of Compound A tablet, Fasted (n = 11)
[8] = plasma, single 20-mg oral dose of Compound A tablet, Fed, high fat meal (n = 11)
[9] = day 1 of administration of about 45 mg of Compound A
[10] = day 1 of administration of about 60 mg of Compound A
[11] = upon administration of about 45 mg of Compound A

susceptibility to hydrolysis [1]: susceptible to hydrolysis
CL/F (L/h), geometric mean (geometric CV %) ([2]; plasma, single 20 mg oral dose of Compound A, fasted healthy adult males, Treatment A = API-in-capsule, B = one 20-mg tablet, C = four 5-mg tablets (analyte Compound A)): 20.3 (23) L/h
pharmacokinetics of tablet formulations versus API in capsule ([2]; single dose 20 mg, healthy adult male subjects): comparable
decrease in Cmax with a high fat meal [3, 6]: ~17%
delay in Tmax with a high fat meal [3, 6]: 2 h
increase in overall exposure (AUCinf) with a high fat meal [3, 6]: ~20%
CL/F (L/h), geometric mean (CV %) [3, 7]: 19.9 (38) L/h
CL/F (L/h), geometric mean (CV %) [3, 8]: 16.7 (38) L/h
SMILES: CO[C@H]1CC[C@H](N2C(=O)CNc3ncc(-c4ccc(C(C)(C)O)nc4)nc32)CC1 [Compound A, 7-(6-(2-hydroxypropan-2-yl)pyridin-3-yl)-1-((trans)-4-methoxycyclohexyl)-3,4-dihydropyrazino[2,3-b]pyrazin-2(1H)-one]

Tax ([2]; metabolite, upon administration of about 20 mg of Compound A (protocol of Section 6.5.1)): 3 h
decrease in Cmax with a high fat meal [3, 6]: ~17%
increase in overall exposure (AUCinf) with a high fat meal [3, 6]: ~3%
CL/F (L/h), geometric mean (CV %) [3, 7]: 2.0 (38) L/h
CL/F (L/h), geometric mean (CV %) [3, 8]: 2.0 (36) L/h
t1/2 (h), geometric mean (CV %) [3, 8]: 14.9 (29) h
tin ([4]; day 1 of administration of about 30 mg of Compound A): 21 h
Tax [4, 9]: 3 h
tin [4, 9]: 17 h
Tax [4, 10]: 5 h
tin [4, 10]: 16 h
Tax ([4]; day 15 of once a day administration of about 30 mg of Compound A): 2 h
Tax ([4]; day 15 of once a day administration of about 45 mg of Compound A): 2 h
Tax ([4]; day 15 of once a day administration of about 60 mg of Compound A): 3 h
concentration at 15 day ([4]; day 15 of once a day administration of about 7.5 mg of Compound A): 267 ng/mL
concentration at 15 day ([4]; day 15 of once a day administration of about 15 mg of Compound A): 145 ng/mL
Tax [4, 11]: 3 h
t1/2 [4, 11]: 14.7 h
SMILES: CC(C)(O)c1ccc(-c2cnc3c(n2)N([C@H]2CC[C@H](O)CC2)C(=O)CN3)cn1 [O-Desmethyl metabolite, 1-((trans)-4-hydroxycyclohexyl)-7-(6-(2-hydroxypropan-2-yl)pyridin-3-yl)-3,4-dihydropyrazino[2,3-b]pyrazin-2(1H)-one]

XRPD diffractogram after full adsorption/desorption cycle ([5]; DVS cycle, 25° C.): unchanged from the initial Form A
hygroscopicity ([5]; DVS moisture sorption/desorption): not hygroscopic
water uptake ([5]; DVS, 25° C., between 0 and 80% relative humidity): < 0.1 % w/w
SMILES: CO[C@H]1CC[C@H](N2C(=O)CNc3ncc(-c4ccc(C(C)(C)O)nc4)nc32)CC1 [Form A, 7-(6-(2-hydroxypropan-2-yl)pyridin-3-yl)-1-((trans)-4-methoxycyclohexyl)-3,4-dihydropyrazino[2,3-b]pyrazin-2(1H)-one]
